Results reported in patent US20250177529A1, “ACOUSTIC ENRICHMENT OF ADOPTIVE CELL TRANSFERS” (THE REGENTS OF THE UNIVERSITY OF COLORADO, A BODY CORPORATE, priority 2022, published 2025).

B1: IFNγ: inflammatory cytokine, equivalent free dose (protein, UniProt P01580 23-155, looked up)
Interferon gamma: HGTVIESLESLNNYFNSSGIDVEEKSLFLDIWRNWQKDGDMKILQSQIISFYLRLFEVLKDNQAISNNISVIESHLITTFFSNSKAKKDAFMSIAKFEVNNPQVQRQAFNELIRVVHQLLPESSLRKRKRSRC

Columns and labels:
[1] = in vivo; cited from earlier work
primary macrophages = experiment: Primary macrophage polarization by IFNγ-containing particles; type: cell-based; conditions: compared to controls
Description: FIG. 7 presents exemplary data showing primary macrophage polarization in various conditions.
FIG. 7A: Normoxia (i.e., standard cell culture conditions) without interferon gamma (IFNγ).
FIG. 7B: Normoxia with IFNγ.
FIG. 7C: Tumor-promoting conditions (i.e., in hypoxia (1% 02) and 10 vol. % tumor (4T1)-conditioned media) and bound to IFNγ-containing particles after 24 hrs.
As discussed above, discoidal elastomeric particles can encapsulate inflammatory cytokines (i.e., IFNγ) and polarize the cells to which they are bound. […] Macrophages maintained their polarization for 5 days, even when challenged by hypoxia (1% O2) and tumor-conditioned media (i.e., 10 vol. % tumor (4T1)-conditioned media).

Molecule | maximum tolerated dose (MTD) [1] [mg/kg] | iNOS expression, fold higher (primary macrophages) [fold]
CC(C)(CNC(=O)c1cccc(-c2noc(C(F)(F)F)n2)c1)c1coc(-c2ccccc2)n1 [TMP195] | 50 | –
CCOCc1nc2c(N)nc3ccccc3c2n1CC(C)(C)O [resiquimod] | 5 | –
B1 | – | 1.3
